# Measured values as given in patent US20240383923A1, “HETEROARYL DERIVATIVE AND USE THEREOF” (VORONOI INC., priority 2022, published 2024).
# System: BT-474 cancer cells
# Assay: Inhibition of BT-474 cell proliferation (CellTiter-Glo)
# Format: cell-based
# Settings: Homo sapiens, BT-474 cells, 120 hours
# Description: BT-474 cancer cells were cultured by using RPMI-1640 medium containing 20% FBS. The BT-474 cancer cells were seeded to a white clear bottom 96 well plate (Corning) at 5,000 cells per well 48 hours before the BT-474 cancer cells were treated with Example Compounds. Example Compounds were diluted in dimethylsulfoxide (3-fold diluted, total 11 concentrations) and 1 μL each was injected so that the final concentration was 0.2 nM to 10 μM. For the measurement of living cells, the cells were stored at room temperature for 10 minutes using the CellTiter-Glo cell viability reagent (Promega) after a predetermined time (120 hours) after the treatment of Example Compounds, and then the luminescence intensity was measured using a reader (SynergyNeo, Biotek). Each test was repeated three times.
# The result value was calculated as a cell growth rate (%) compared to a control group. Graphs were plotted and GI50 values were calculated using the GraphPad Prism version 8.0 program, and the results are shown in Table 18 below.
row,GI50,SMILES
1,≤ 50 nM,"COc1cc2ncnc(Nc3cc(C)c(Oc4ccc5nccnc5c4)cc3OC)c2cc1NC(=O)/C(F)=C/[C@H]1CCCN1C [Example 63, (R,Z)-2-fluoro-N-(7-methoxy-4-((2-methoxy-5-methyl-4-(quinoxalin-6-yloxy)phenyl)amino)quinazolin-6-yl)-3-(1-methylpyrrolidin-2-yl)acrylamide]"
2,≤ 50 nM,"COc1cc2ncnc(Nc3cc(C)c(Oc4ccc5ccccc5c4)cc3OC)c2cc1NC(=O)/C(F)=C/[C@H]1CCCN1C [Example 64, (R,Z)-2-fluoro-N-(7-methoxy-4-((2-methoxy-5-methyl-4-(naphthalen-2-yloxy)phenyl)amino)quinazolin-6-yl)-3-(1-methylpyrrolidin-2-yl)acrylamide]"
3,≤ 50 nM,"COc1cc2ncnc(Nc3cc(C)c(Oc4ccc5ccccc5c4)cc3OC)c2cc1NC(=O)/C(F)=C\[C@H]1CCCN1C [Example 65, (R,E)-2-fluoro-N-(7-methoxy-4-((2-methoxy-5-methyl-4-(naphthalen-2-yloxy)phenyl)amino)quinazolin-6-yl)-3-(1-methylpyrrolidin-2-yl)acrylamide]"
4,≤ 50 nM,"COc1cc2ncnc(Nc3cc(C)c(Oc4ccc5oc(C)nc5c4)cc3OC)c2cc1NC(=O)/C(F)=C/[C@H]1CCCN1C [Example 68, (R,Z)-2-fluoro-N-(7-methoxy-4-((2-methoxy-5-methyl-4-((2-methylbenzo[d]oxazol-5-yl)oxy)phenyl)amino)quinazolin-6-yl)-3-(1-methylpyrrolidin-2-yl)acrylamide]"
5,≤ 50 nM,"COc1cc2ncnc(Nc3cc(C)c(Oc4ccc5c(c4)NC(O)O5)cc3OC)c2cc1NC(=O)/C(F)=C/[C@H]1CCCN1C (stereo partly drawn) [Example 70, (Z)-2-fluoro-N-(4-((4-((2-hydroxy-2,3-dihydrobenzo[d]oxazol-5-yl)oxy)-2-methoxy-5-methylphenyl)amino)-7-methoxyquinazolin-6-yl)-3-((R)-1-methylpyrrolidin-2-yl)acrylamide]"
6,≤ 50 nM,"COc1cc2ncnc(Nc3cc(C)c(Oc4ccn(C)c(=O)c4)cc3OC)c2cc1NC(=O)/C(F)=C\[C@H]1CCCN1C [Example 71, (R,E)-2-fluoro-N-(7-methoxy-4-((2-methoxy-5-methyl-4-((1-methyl-2-oxo-1,2-dihydropyridin-4-yl)oxy)phenyl)amino)quinazolin-6-yl)-3-(1-methylpyrrolidin-2-yl)acrylamide]"
7,≤ 50 nM,"COc1cc2ncnc(Nc3cc(C)c(Oc4ccc5ncnn5c4)cc3OC)c2cc1NC(=O)/C(F)=C\[C@H]1CCCN1C [Example 72, (R,E)-N-(4-((4-([1,2,4]triazolo[1,5-a]pyridin-6-yloxy)-2-methoxy-5-methylphenyl)amino)-7-methoxyquinazolin-6-yl)-2-fluoro-3-(1-methylpyrrolidin-2-yl)acrylamide]"
8,≤ 50 nM,"COc1cc2ncnc(Nc3cc(C)c(Oc4ccc5ncnn5c4)cc3OC)c2cc1NC(=O)/C(F)=C/[C@H]1CCCN1C [Example 73, (R,Z)—N-(4-((4-([1,2,4]triazolo[1,5-a]pyridin-6-yloxy)-2-methoxy-5-methylphenyl)amino)-7-methoxyquinazolin-6-yl)-2-fluoro-3-(1-methylpyrrolidin-2-yl)acrylamide]"
9,≤ 50 nM,"COc1cc2ncnc(Nc3cc(C)c(Oc4cnc5ccnn5c4)cc3OC)c2cc1NC(=O)/C(F)=C\[C@H]1CCCN1C [Example 79, (R,E)-2-fluoro-N-(7-methoxy-4-((2-methoxy-5-methyl-4-(pyrazolo[1,5-a]pyrimidin-6-yloxy)phenyl)amino)quinazolin-6-yl)-3-(1-methylpyrrolidin-2-yl)acrylamide]"
10,≤ 50 nM,"COc1cc2ncnc(Nc3cc(C)c(Oc4cnc5ccnn5c4)cc3OC)c2cc1NC(=O)/C(F)=C/[C@H]1CCCN1C [Example 80, (R,Z)-2-fluoro-N-(7-methoxy-4-((2-methoxy-5-methyl-4-(pyrazolo[1,5-a]pyrimidin-6-yloxy)phenyl)amino)quinazolin-6-yl)-3-(1-methylpyrrolidin-2-yl)acrylamide]"
11,≤ 50 nM,"COc1cc2ncnc(Nc3cc(C)c(Oc4ccc5ncsc5c4)cc3OC)c2cc1NC(=O)/C(F)=C\[C@H]1CCCN1C [Example 81, (R,E)-N-(4-((4-(benzo[d]thiazol-6-yloxy)-2-methoxy-5-methylphenyl)amino)-7-methoxyquinazolin-6-yl)-2-fluoro-3-(1-methylpyrrolidin-2-yl)acrylamide]"
12,≤ 50 nM,"COc1cc2ncnc(Nc3cc(C)c(Oc4ccc5ncsc5c4)cc3OC)c2cc1NC(=O)/C(F)=C/[C@H]1CCCN1C [Example 82, (R,Z)—N-(4-((4-(benzo[d]thiazol-6-yloxy)-2-methoxy-5-methylphenyl)amino)-7-methoxyquinazolin-6-yl)-2-fluoro-3-(1-methylpyrrolidin-2-yl)acrylamide]"
13,≤ 50 nM,"COc1cc2ncnc(Nc3cc(C)c(Oc4ccc5scnc5c4)cc3OC)c2cc1NC(=O)/C(F)=C\[C@H]1CCCN1C [Example 84, (R,E)-N-(4-((4-(benzo[d]thiazol-5-yloxy)-2-methoxy-5-methylphenyl)amino)-7-methoxyquinazolin-6-yl)-2-fluoro-3-(1-methylpyrrolidin-2-yl)acrylamide]"
14,≤ 50 nM,"COc1cc2ncnc(Nc3cc(C)c(Oc4ccc5c(c4)OCO5)cc3OC)c2cc1NC(=O)/C(F)=C\[C@H]1CCCN1C [Example 85, (R,E)-N-(4-((4-(benzo[d][1,3]dioxol-5-yloxy)-2-methoxy-5-methylphenyl)amino)-7-methoxyquinazolin-6-yl)-2-fluoro-3-(1-methylpyrrolidin-2-yl)acrylamide]"
15,≤ 50 nM,"COc1cc2ncnc(Nc3cc(C)c(Oc4ccc5c(c4)OCO5)cc3OC)c2cc1NC(=O)/C(F)=C/[C@H]1CCCN1C [Example 86, (R,Z)—N-(4-((4-(benzo[d][1,3]dioxol-5-yloxy)-2-methoxy-5-methylphenyl)amino)-7-methoxyquinazolin-6-yl)-2-fluoro-3-(1-methylpyrrolidin-2-yl)acrylamide]"
16,≤ 50 nM,"COc1cc2ncnc(Nc3cc(C)c(Oc4ccc5cccnc5c4)cc3OC)c2cc1NC(=O)/C(F)=C/[C@H]1CCCN1C [Example 87, (R,Z)-2-fluoro-N-(7-methoxy-4-((2-methoxy-5-methyl-4-(quinolin-7-yloxy)phenyl)amino)quinazolin-6-yl)-3-(1-methylpyrrolidin-2-yl)acrylamide]"
17,≤ 50 nM,"COc1cc2ncnc(Nc3cc(C)c(Oc4ccc5cccnc5c4)cc3OC)c2cc1NC(=O)/C(F)=C\[C@H]1CCCN1C [Example 88, (R,E)-2-fluoro-N-(7-methoxy-4-((2-methoxy-5-methyl-4-(quinolin-7-yloxy)phenyl)amino)quinazolin-6-yl)-3-(1-methylpyrrolidin-2-yl)acrylamide]"
18,≤ 50 nM,"COc1cc2ncnc(Nc3cc(C)c(Oc4ccc5cnn(C)c5c4)cc3OC)c2cc1NC(=O)/C(F)=C\[C@H]1CCCN1C [Example 89, (R,E)-2-fluoro-N-(7-methoxy-4-((2-methoxy-5-methyl-4-((1-methyl-1H-indazol-6-yl)oxy)phenyl)amino)quinazolin-6-yl)-3-(1-methylpyrrolidin-2-yl)acrylamide]"
19,≤ 50 nM,"COc1cc2ncnc(Nc3cc(C)c(Oc4ccc5cnn(C)c5c4)cc3OC)c2cc1NC(=O)/C(F)=C/[C@H]1CCCN1C [Example 90, (R,Z)-2-fluoro-N-(7-methoxy-4-((2-methoxy-5-methyl-4-((1-methyl-1H-indazol-6-yl)oxy)phenyl)amino)quinazolin-6-yl)-3-(1-methylpyrrolidin-2-yl)acrylamide]"
20,≤ 50 nM,"COCCOc1cc2ncnc(Nc3cc(C)c(Oc4ccn5ncnc5c4)cc3OC)c2cc1NC(=O)/C(F)=C\[C@H]1CCCN1C [Example 94, (R,E)-N-(4-((4-([1,2,4]triazolo[1,5-a]pyridin-7-yloxy)-2-methoxy-5-methylphenyl)amino)-7-(2-methoxyethoxy)quinazolin-6-yl)-2-fluoro-3-(1-methylpyrrolidin-2-yl)acrylamide]"
21,≤ 50 nM,"COc1cc(Oc2ccn3ncnc3c2)c(C)cc1Nc1ncnc2cc(OC3CCOC3)c(NC(=O)/C(F)=C/[C@H]3CCCN3C)cc12 (stereo partly drawn) [Example 97, (Z)—N-(4-((4-([1,2,4]triazolo[1,5-a]pyridin-7-yloxy)-2-methoxy-5-methylphenyl)amino)-7-((tetrahydrofuran-3-yl)oxy)quinazolin-6-yl)-2-fluoro-3-((R)-1-methylpyrrolidin-2-yl)acrylamide]"
22,≤ 50 nM,"COc1cc(Oc2ccn3ncnc3c2)c(C)cc1Nc1ncnc2cc(OC(F)F)c(NC(=O)/C(F)=C/[C@H]3CCCN3C)cc12 [Example 98, (R,Z)—N-(4-((4-([1,2,4]triazolo[1,5-a]pyridin-7-yloxy)-2-methoxy-5-methylphenyl)amino)-7-(difluoromethoxy)quinazolin-6-yl)-2-fluoro-3-(1-methylpyrrolidin-2-yl)acrylamide]"
23,≤ 50 nM,"COc1cc(Oc2ccn3ncnc3c2)c(C)cc1Nc1ncnc2cc(OC(F)F)c(NC(=O)/C(F)=C\[C@H]3CCCN3C)cc12 [Example 99, (R,E)-N-(4-((4-([1,2,4]triazolo[1,5-a]pyridin-7-yloxy)-2-methoxy-5-methylphenyl)amino)-7-(difluoromethoxy)quinazolin-6-yl)-2-fluoro-3-(1-methylpyrrolidin-2-yl)acrylamide]"
24,≤ 50 nM,"COc1cc(Oc2ccn3ncnc3c2)c(C)cc1Nc1ncnc2cc(OCCN3CCOCC3)c(NC(=O)/C(F)=C/[C@H]3CCCN3C)cc12 [Example 101, (R,Z)—N-(4-((4-([1,2,4]triazolo[1,5-a]pyridin-7-yloxy)-2-methoxy-5-methylphenyl)amino)-7-(2-morpholinoethoxy)quinazolin-6-yl)-2-fluoro-3-(1-methylpyrrolidin-2-yl)acrylamide]"
